ChEMBL document CHEMBL4828769, “Discovery of AS-0141, a Potent and Selective Inhibitor of CDC7 Kinase for the Treatment of Solid Cancers” (J Med Chem, 2021)

Legend:
[1] = AUC(0 to infinity) in dog at 1 mg/kg, iv; format: ADME, organism-based, Canis lupus familiaris; design: route intravenous, time infinity, dose 1 mg/kg; conditions: in vivo
[2] = Cmax in dog at 1 mg/kg, iv; format: ADME, organism-based, Canis lupus familiaris; design: route intravenous, dose 1 mg/kg; conditions: in vivo
[3] = Tmax in dog at 2 mg/kg, po; format: ADME, organism-based, Canis lupus familiaris; conditions: in vivo
[4] = Metabolic stability in dog liver microsomes assessed as parent compound remaining after 30 mins; format: ADME, Canis lupus familiaris, Microsome; conditions: read-out: Stability
[5] = Half life in dog at 1 mg/kg, iv; format: ADME, organism-based, Canis lupus familiaris; conditions: in vivo
[6] = biological target: Serine/threonine-protein kinase pim-1 (Homo sapiens, UniProt P11309); assay: Inhibition of PIM1 (unknown origin) in presence of 1 mM ATP without preincubation
Sequence of Serine/threonine-protein kinase pim-1 (P11309 whole entry): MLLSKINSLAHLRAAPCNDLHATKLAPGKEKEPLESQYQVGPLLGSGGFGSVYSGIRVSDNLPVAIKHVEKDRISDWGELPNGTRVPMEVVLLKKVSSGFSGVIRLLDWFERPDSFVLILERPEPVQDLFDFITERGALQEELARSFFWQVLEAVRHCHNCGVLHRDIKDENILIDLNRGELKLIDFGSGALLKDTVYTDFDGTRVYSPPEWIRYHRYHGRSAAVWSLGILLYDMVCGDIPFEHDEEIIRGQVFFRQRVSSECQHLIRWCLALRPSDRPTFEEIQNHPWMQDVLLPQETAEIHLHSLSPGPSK

[7] = Half life in mouse at 1 mg/kg, iv; format: ADME, organism-based; conditions: in vivo
[8] = biological target: T1, Dual specificity protein kinase CLK1 (Homo sapiens, UniProt P49759); assay: Inhibition of CLK1 (unknown origin) in presence of 1 mM ATP without preincubation
Target sequence in this assay (P49759 whole entry): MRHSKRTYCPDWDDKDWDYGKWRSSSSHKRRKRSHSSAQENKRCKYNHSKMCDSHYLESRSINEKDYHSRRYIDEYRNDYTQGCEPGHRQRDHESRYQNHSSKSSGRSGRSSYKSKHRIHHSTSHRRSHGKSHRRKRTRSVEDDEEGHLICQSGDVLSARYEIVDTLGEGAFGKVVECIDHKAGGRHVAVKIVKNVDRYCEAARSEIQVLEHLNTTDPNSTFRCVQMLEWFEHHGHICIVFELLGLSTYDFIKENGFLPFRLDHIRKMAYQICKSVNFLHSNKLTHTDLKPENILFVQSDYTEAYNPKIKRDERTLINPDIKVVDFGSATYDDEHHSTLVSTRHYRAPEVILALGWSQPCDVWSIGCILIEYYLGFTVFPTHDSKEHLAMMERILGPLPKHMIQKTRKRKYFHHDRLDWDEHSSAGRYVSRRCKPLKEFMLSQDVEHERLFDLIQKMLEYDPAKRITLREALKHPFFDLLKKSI

[9] = Oral bioavailability in mouse at 10 mg/kg; format: ADME, organism-based; conditions: in vivo
Homo sapiens [10] = species: Homo sapiens; assay: Selectivity index, ratio of IC50 for GSK3alpha (unknown origin) in presence of 1 mM ATP without preincubation to IC50 for GSK3alpha (unknown origin) in presence of 1 mM ATP with preincubation
SW-620 [11] = assay: Induction of apoptosis in human SW-620 cells assessed as increase in cleaved PARP level incubated for 48 hrs by Western blot analysis; format: functional, cell-based; conditions: dose 0.03-1 µM
[12] = biological target: T2, Dual specificity protein kinase CLK2 (Homo sapiens, UniProt P49760); assay: Inhibition of CLK2 (unknown origin) at 0.1 uM in presence of 1 mM ATP relative to control
Target sequence in this assay (P49760 whole entry, looked up): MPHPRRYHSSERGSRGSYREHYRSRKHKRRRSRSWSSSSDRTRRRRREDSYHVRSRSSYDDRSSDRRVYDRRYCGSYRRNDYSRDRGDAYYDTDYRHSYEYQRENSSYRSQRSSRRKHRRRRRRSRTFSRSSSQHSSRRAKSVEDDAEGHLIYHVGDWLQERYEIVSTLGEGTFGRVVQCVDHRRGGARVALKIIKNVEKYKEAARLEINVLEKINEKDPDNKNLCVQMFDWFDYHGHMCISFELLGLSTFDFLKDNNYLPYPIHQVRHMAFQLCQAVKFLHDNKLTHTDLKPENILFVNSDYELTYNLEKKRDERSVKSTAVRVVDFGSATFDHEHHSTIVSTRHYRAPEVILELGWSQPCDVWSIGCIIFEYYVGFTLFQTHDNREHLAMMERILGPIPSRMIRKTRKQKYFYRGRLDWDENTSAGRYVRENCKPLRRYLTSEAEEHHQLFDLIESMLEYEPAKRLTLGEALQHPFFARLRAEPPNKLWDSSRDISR

[13] = biological target: T1, Dual specificity protein kinase CLK1; assay: Inhibition of CLK1 (unknown origin) at 0.1 uM in presence of 1 mM ATP relative to control
Target sequence in this assay (P49759 whole entry, looked up): as the sequence (P49759 whole entry) above

[14] = Half life in mouse at 10 mg/kg, po; format: ADME, organism-based; conditions: in vivo
[15] = biological target: T2, Dual specificity protein kinase CLK2; assay: Inhibition of CLK2 (unknown origin) in presence of 1 mM ATP without preincubation
Target sequence in this assay (P49760 whole entry): as the sequence (P49760 whole entry, looked up) above

[16] = AUC(0 to infinity) in mouse at 1 mg/kg, iv; format: ADME, organism-based; design: route intravenous, time infinity, dose 1 mg/kg; conditions: in vivo
[17] = AUC(0 to infinity) in rat at 10 mg/kg, po; format: ADME, organism-based; design: time infinity, route oral, dose 10 mg/kg; conditions: in vivo
Homo sapiens [18] = species: Homo sapiens; assay: Selectivity index, ratio of IC50 for PIM1 (unknown origin) in presence of 1 mM ATP without preincubation to IC50 for PIM1 (unknown origin) in presence of 1 mM ATP with preincubation
[19] = Apparent permeability across apical to basolateral side in human Caco-2 cells; format: ADME, cell-based
[20] = biological target: Cell division cycle 7-related protein kinase (Homo sapiens, UniProt O00311); assay: Reversible inhibition of human CDC7 assessed as off-rate preincubated for 50 mins followed by substrate addition in presence of ATP by rapid dilution assay
Sequence of Cell division cycle 7-related protein kinase (O00311 whole entry, looked up): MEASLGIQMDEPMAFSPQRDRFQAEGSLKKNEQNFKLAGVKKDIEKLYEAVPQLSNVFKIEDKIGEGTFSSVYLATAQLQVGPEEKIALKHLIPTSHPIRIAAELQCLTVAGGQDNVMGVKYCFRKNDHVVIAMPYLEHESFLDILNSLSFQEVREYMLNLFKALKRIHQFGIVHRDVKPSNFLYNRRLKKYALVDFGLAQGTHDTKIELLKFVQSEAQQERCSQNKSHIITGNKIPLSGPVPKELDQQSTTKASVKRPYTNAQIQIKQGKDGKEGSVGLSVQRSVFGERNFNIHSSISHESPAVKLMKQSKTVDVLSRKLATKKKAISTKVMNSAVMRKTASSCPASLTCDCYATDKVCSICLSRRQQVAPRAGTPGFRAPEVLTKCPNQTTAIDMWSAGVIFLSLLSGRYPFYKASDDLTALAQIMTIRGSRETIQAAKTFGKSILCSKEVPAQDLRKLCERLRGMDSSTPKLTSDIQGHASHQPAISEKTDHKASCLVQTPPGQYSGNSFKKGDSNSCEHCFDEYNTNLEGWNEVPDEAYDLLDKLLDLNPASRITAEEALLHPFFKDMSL

[21] = biological target: T2, Dual specificity protein kinase CLK2; assay: Inhibition of CLK2 (unknown origin) in presence of 1 mM ATP with preincubation
Target sequence in this assay (P49760 whole entry): as the sequence (P49760 whole entry, looked up) above

SW-620 [22] = assay: Antitumor activity against human SW-620 cells xenografted in BALB/c nude mouse assessed as tumor growth inhibition at 60 mg/kg, po administered as 4 days on and 2 days off schedule for 21 days; format: functional; conditions: SW-620, po, 504 h, time 21 day, read-out: TGI
SW-620 [23] = assay: Induction of apoptosis in human SW-620 cells assessed as increase in cleaved caspase 3 level incubated for 48 hrs by Western blot analysis; format: functional, cell-based; conditions: dose 0.03-1 µM

CCOC(=O)C1=C(NN2CCN(CC(F)(F)F)CC2)O/C(=C\c2c[nH]c3ncccc23)C1=O [MONZOSERTIB]
AUC(0-inf) [1]: 1250 ng·h/mL
Cmax [2]: 298 ng/mL
Tmax [3]: 2.67 h
remaining at 0.5 h [4]: 81%
half-life [5]: 4.8 h
IC50 [6]: 30 nM
half-life [7]: 0.32 h
IC50 [8]: 212 nM
bioavailability [9]: 30.6%
Ratio IC50 (Homo sapiens [10]): 0.8
Activity (SW-620 [11]): Dose-Dependent Effect
inhibition [12]: > 30%
inhibition [13]: > 30%
half-life [14]: 1.45 h
IC50 [15]: 270 nM
AUC(0-inf) [16]: 149 ng·h/mL
AUC(0-inf) [17]: 2410 ng·h/mL
Ratio IC50 (Homo sapiens [18]): 0.9
Papp A→B [19]: 24.9 ×10⁻⁶ cm/s
T1/2 [20]: 3.58 h
IC50 [21]: 227 nM
inhibition in vivo at 60 mg/kg (SW-620 [22]): 83%
Activity (SW-620 [23]): Dose-Dependent Effect
